Measured values from BindingDB's records for doi:10.1124/jpet.102.046318 (Georgetown University, 2003).

Assays:
[1] = biological target: Sodium-dependent serotonin transporter (Rattus norvegicus, UniProt P31652)
[2] = biological target: Sodium-dependent dopamine transporter (Rattus norvegicus, UniProt P23977)
[3] = biological target: Norepinephrine transporter (Rattus norvegicus, UniProt Q9JIA2)

Sequence of Sodium-dependent dopamine transporter (P23977 whole entry): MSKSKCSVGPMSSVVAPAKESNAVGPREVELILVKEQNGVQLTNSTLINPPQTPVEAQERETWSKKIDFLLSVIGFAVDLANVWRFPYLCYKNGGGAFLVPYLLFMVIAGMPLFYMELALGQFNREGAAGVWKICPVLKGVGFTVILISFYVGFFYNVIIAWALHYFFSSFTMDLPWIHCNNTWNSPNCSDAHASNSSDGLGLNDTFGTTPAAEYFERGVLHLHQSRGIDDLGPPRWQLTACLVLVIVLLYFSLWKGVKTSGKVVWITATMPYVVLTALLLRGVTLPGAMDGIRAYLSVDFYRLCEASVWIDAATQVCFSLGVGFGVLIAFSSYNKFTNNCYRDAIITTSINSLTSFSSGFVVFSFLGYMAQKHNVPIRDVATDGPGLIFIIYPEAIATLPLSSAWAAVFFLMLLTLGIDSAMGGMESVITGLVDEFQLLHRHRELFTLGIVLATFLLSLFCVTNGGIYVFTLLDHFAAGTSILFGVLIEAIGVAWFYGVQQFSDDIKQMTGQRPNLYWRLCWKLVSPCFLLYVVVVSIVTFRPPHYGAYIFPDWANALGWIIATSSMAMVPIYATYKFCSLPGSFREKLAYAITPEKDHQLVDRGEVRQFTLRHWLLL
Sequence of Sodium-dependent serotonin transporter (P31652 whole entry): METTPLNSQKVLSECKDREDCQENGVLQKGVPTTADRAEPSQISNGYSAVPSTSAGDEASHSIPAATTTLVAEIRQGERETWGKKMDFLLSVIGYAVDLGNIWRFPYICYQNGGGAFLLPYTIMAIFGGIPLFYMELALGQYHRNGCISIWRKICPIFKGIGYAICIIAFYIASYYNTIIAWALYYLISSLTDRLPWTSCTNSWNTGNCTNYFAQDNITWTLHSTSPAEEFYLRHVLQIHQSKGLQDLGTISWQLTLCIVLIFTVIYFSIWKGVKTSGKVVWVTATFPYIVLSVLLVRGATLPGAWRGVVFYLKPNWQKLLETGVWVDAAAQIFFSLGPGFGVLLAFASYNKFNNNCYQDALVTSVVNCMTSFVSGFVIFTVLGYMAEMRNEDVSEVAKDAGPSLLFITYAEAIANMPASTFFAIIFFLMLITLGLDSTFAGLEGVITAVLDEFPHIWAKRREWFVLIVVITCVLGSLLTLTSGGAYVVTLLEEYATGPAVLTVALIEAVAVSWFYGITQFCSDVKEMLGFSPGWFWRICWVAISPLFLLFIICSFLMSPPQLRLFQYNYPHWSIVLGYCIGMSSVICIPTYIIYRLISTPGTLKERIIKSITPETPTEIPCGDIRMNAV

| SMILES | Ki [1] [µM] | Ki [2] [nM] | Ki [3] [nM] |
| --- | --- | --- | --- |
| CN1CCC(c2ccc(Cl)cc2)[C@H](C(=O)O)C1 (stereo not given in full) [CAS_8268] | 5.9 | 276 | 90 |
| CN1CCC(c2ccc(Cl)cc2)[C@@H](C(=O)O)C1 (stereo partly drawn) [cis-CPCA, -] | – | 67 | 98 |
